Reference: US12486229B2, “Indole derivative and application thereof” (SHANGHAI MEDICILON INC., priority 2020, dated 2025)

What was measured:
S1P1 = biological target: T1, S1P1 (Homo sapiens, UniProt P21453); assay: S1P1 overexpression cell activity by β-arrestin assay (U2OS-EDG1); format: cell-based; conditions: U2OS-EDG1 cells
T1 construct: host or cells: U2OS (human osteosarcoma) cell line, U2OS-EDG1
Procedure: The following experiments were conducted to detect the activity of the compound on S1P1 overexpression cells by β-arrestin assay. [table] [table] 3. Experimental Steps Day 1: Cell Seeding Plate and Compound Treatment • (1) Firstly, the compound was diluted by a 4-fold gradient into 10 concentration points from the concentration of 10 μM in the culture plate by using NL fluid transfer system, with 2 replicates at each concentration point. • (2) Cells were resuspended by using FreeStyle™ expression medium, and the cell density was adjusted to 7,500 cells per 40 μL suspension. The samples with test concentration were added into the well of the cell culture plate, and 40 μL cell suspension was added into the corresponding well. • (3) The above cell plates were incubated overnight in a CO2 incubator with 5% (volume fraction) at 37° C. Day 2: Detection and Data Analysis • (1) The buffer solution was prepared according to the preparation method in the instructions of LiveBLAser™-fluorescence resonance energy transfer B/G loading kit. • (2) 8 μL detection reagent was added to each well, which were shaken and mixed evenly for 1 minute, centrifugated at 1,000 rpm for 10 seconds, and incubated at 23° C. in dark for 2 hours. • 3) Detection was performed by multimode reader. • 4) The PrismDemo software was used to analyze the data and fit the curve. 4. Experimental Results

[1] = test system: DSS induced ulcerative colitis in mice; assay: DSS induced ulcerative colitis in mice; format: in vivo; parameters: key to Total stool scores: sum of shape (1-3) and bleeding (1-3) levels; normal = 1 each; Colon length: unit not given here; conditions: for Colon length / Colon weight / Effect on blood stool and loose stool compared with model group: day 9; for Colon weight compared with model group: P<0.05
Procedure: Molecular weight of DSS dextran sodium sulfate: 36,000 to 50,000, From MP Biomedical Company.
Preparation of molding agent: preparation of 3.5% DSS: 49 g DSS plus 1,400 mL high-temperature sterilized water.
Source of SPF male C57BL/6 mice: Beijing Weitong Lihua Experimental Animal Technology Co., Ltd. • Animal age at the beginning of the experiment: 6 to 8 weeks; • Animal weight at the beginning of the experiment: 22 to 25 g; • Adaptation time: 3 to 5 days;
The mice were divided into groups according to their weight, 10 mice in each group. The mice were administrated once a day by gavage (or blank) according to the following Table 4.
Animals were given 3.5% DSS solution for free drinking water modeling (the day of modeling was recorded as day 1), and the modeling agent was replaced once every two days for 7 consecutive days, and then (day 8) 3.5% DSS was replaced with ordinary drinking water for another 1 day.
• Preparation of solvent 1: 0.66 mL DMSO, 1.32 mL Solutol and 11.22 mL Saline were mixed to prepare 13.2 mL of solvent 1; • Preparation of solvent 2: 0.3 mL DMSO, 0.6 mL Solutol and 5.1 mL Saline were mixed to prepare 6 mL of solvent 2; • Preparation of solution of compound of Example 3: 39.6 mg of compound of Example 3 was dissolved in 13.2 mL of solvent 1 to obtain the solution of compound 1 of Example 3, the solution 1 of compound of Example 3 was diluted with solvent 1 to prepare the solution of compound of Example 3 with concentrations of 2 mg/mL, 1 mg/mL, and 0.6 mg/mL; • Etrasimod solution: 6 mg of Etrasimod was dissolve in 6 mL of solvent 2 to obtain Etrasimod solution; • Ozanimod solution: 12 mg of […] was dissolved in 6 mL solvent 2 to obtain Ozanimod solution; • Note: Prepare once every two days, and store in refrigerator at 4° C.
Wherein, the purity of compound of Example 3 was 99.74%, Ozanimod and Etrasimod were prepared by the method described in Example 8, and the purities were 99.78% and 98.47% respectively.
The mouse stool was observed on its shape, bleeding condition every two days, and scored. Scoring criteria for stool condition: shape: normal (level 1), soft stool (level 2), and loose stool (level 3); traits: normal (level 1), faint redness (level 2), and bloody stool visible to the unaided eye (level 3).
After the last administration (8 consecutive days), the animals were dissected on the next day (day 9), the colon was separated, the whole colon was photographed, and the colon length was measured. Then the colon was cut longitudinally along the mesenteric side to remove the contents, which was weighed and observed on the integrity of the colonic mucosa. The colon was then fixed in 10% formalin.

[2] = 6 mg/kg oral gavage once a day for 8 days
[3] = 10 mg/kg oral gavage once a day for 8 days
[4] = 20 mg/kg oral gavage once a day for 8 days
[5] = 30 mg/kg oral gavage once a day for 8 days
[6] = Day 1, 10 mg/kg oral gavage once a day
[7] = Day 2, 10 mg/kg oral gavage once a day
[8] = Day 3, 10 mg/kg oral gavage once a day
[9] = Day 4, 10 mg/kg oral gavage once a day
[10] = Day 5, 10 mg/kg oral gavage once a day
[11] = Day 6, 10 mg/kg oral gavage once a day
[12] = Day 7, 6 mg/kg oral gavage once a day
[13] = Day 7, 10 mg/kg oral gavage once a day
[14] = Day 7, 20 mg/kg oral gavage once a day
[15] = Day 7, 30 mg/kg oral gavage once a day
[16] = Day 8, 6 mg/kg oral gavage once a day
[17] = Day 8, 10 mg/kg oral gavage once a day
[18] = Day 8, 20 mg/kg oral gavage once a day
[19] = Day 8, 30 mg/kg oral gavage once a day
[20] = Day 9, 6 mg/kg oral gavage once a day
[21] = Day 9, 10 mg/kg oral gavage once a day
[22] = Day 9, 20 mg/kg oral gavage once a day
[23] = Day 9, 30 mg/kg oral gavage once a day

T1 sequence (P21453 whole entry): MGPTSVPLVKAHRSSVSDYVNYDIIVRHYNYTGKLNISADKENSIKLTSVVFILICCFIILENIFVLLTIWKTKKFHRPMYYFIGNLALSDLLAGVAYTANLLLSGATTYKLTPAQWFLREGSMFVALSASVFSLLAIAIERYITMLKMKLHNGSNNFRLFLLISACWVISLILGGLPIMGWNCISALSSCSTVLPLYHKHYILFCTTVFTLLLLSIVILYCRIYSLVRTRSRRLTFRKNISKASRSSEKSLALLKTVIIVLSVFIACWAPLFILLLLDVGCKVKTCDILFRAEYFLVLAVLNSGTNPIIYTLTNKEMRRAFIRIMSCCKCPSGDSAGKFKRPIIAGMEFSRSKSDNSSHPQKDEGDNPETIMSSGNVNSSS

Compound O=C(O)CCn1ccc2cc(OCc3ccc(C4CCCC4)c(C(F)(F)F)c3)cc(Cl)c21 [Compound of Example 3, 3-(7-chlorine-5-((4-cyclopentyl-3-(trifluoromethyl)benzyl)oxy)-1H-indole-1-yl)propionic acid] has an IC50 (S1P1) of 0.148 nM, a Colon length [1, 2] of 39.061 ± 1.17 and a Colon weight [1, 2] of 0.164 ± 0.01 g. For the same compound, the “Colon weight compared with model group” value ([1]; 6 mg/kg) was “statistically significant difference compared with that of the model group”, the “Effect on blood stool and loose stool compared with model group” value (shortened to “Effect … compared with model group”) ([1]; 6 mg/kg) was “significantly improving blood stool and loose stool” and the Colon length [1, 3] was 39.638 ± 0.76. For the same compound, the Colon weight [1, 3] was 0.164 ± 0.01 g, the “Colon weight compared with model group” value ([1]; 10 mg/kg) was “statistically significant difference compared with that of the model group” and the “Effect … compared with model group” value ([1]; 10 mg/kg) was “significantly improving blood stool and loose stool”. For the same compound, the “Colon length compared with model group” value ([1]; 20 mg/kg) was “longer than that of the model group”, the Colon length [1, 4] was 44.892 ± 1.83 and the Colon weight [1, 4] was 0.163 ± 0.01 g. For the same compound, the “Colon weight compared with model group” value ([1]; 20 mg/kg) was “statistically significant difference compared with that of the model group”, the “Effect … compared with model group” value ([1]; 20 mg/kg) was “significantly improving blood stool and loose stool” and the “Colon length compared with model group” value ([1]; 30 mg/kg) was “longer than that of the model group”. For the same compound, the Colon length [1, 5] was 41.311 ± 1.25, the Colon weight [1, 5] was 0.162 ± 0.01 g and the “Effect … compared with model group” value ([1]; 30 mg/kg) was “significantly improving blood stool and loose stool”. It also gave a Weight ([1]; Day 1, 6 mg/kg oral gavage once a day) of 21.3 ± 0.26 g, a Weight [1, 6] of 21.9 ± 0.2 g and a Weight ([1]; Day 1, 20 mg/kg oral gavage once a day) of 21.2 ± 0.34 g. It also gave a Weight ([1]; Day 1, 30 mg/kg oral gavage once a day) of 21.5 ± 0.17 g, a Weight ([1]; Day 2, 6 mg/kg oral gavage once a day) of 21.5 ± 0.27 g and a Weight [1, 7] of 22.1 ± 0.2 g. It also gave a Weight ([1]; Day 2, 20 mg/kg oral gavage once a day) of 21.7 ± 0.29 g, a Weight ([1]; Day 2, 30 mg/kg oral gavage once a day) of 21.9 ± 0.17 g and a Weight ([1]; Day 3, 6 mg/kg oral gavage once a day) of 21.1 ± 0.3 g. For the same compound, the Weight [1, 8] was 21.4 ± 0.32 g, the Weight ([1]; Day 3, 20 mg/kg oral gavage once a day) was 21.5 ± 0.33 g and the Weight ([1]; Day 3, 30 mg/kg oral gavage once a day) was 21.4 ± 0.34 g. The Weight ([1]; Day 4, 6 mg/kg oral gavage once a day) was 20.9 ± 0.47 g, the Weight [1, 9] was 21.3 ± 0.46 g and the Weight ([1]; Day 4, 20 mg/kg oral gavage once a day) was 21.8 ± 0.34 g. The Weight ([1]; Day 4, 30 mg/kg oral gavage once a day) was 21.1 ± 0.4 g, the Weight ([1]; Day 5, 6 mg/kg oral gavage once a day) was 21.1 ± 0.25 g and the Weight [1, 10] was 21.0 ± 0.6 g. The Weight ([1]; Day 5, 20 mg/kg oral gavage once a day) was 21.5 ± 0.33 g, the Weight ([1]; Day 5, 30 mg/kg oral gavage once a day) was 21.1 ± 0.39 g and the Weight ([1]; Day 6, 6 mg/kg oral gavage once a day) was 20.5 ± 0.25 g. For the same compound, the Weight [1, 11] was 20.4 ± 0.45 g, the Weight ([1]; Day 6, 20 mg/kg oral gavage once a day) was 20.3 ± 0.48 g and the Weight ([1]; Day 6, 30 mg/kg oral gavage once a day) was 20.1 ± 0.58 g. It also gave a Total stool scores [1, 12] of 5.6 ± 0.17, a Weight [1, 12] of 19.2 ± 0.23 g and a Total stool scores [1, 13] of 5.7 ± 0.22. It also gave a Weight [1, 13] of 19 ± 0.46 g, a Total stool scores [1, 14] of 5.7 ± 0.21 and a Weight [1, 14] of 19 ± 0.46 g. It also gave a Total stool scores [1, 15] of 5.4 ± 0.32, a Weight [1, 15] of 19.5 ± 0.52 g and a Total stool scores [1, 16] of 5.9 ± 0.11. It also gave a Weight [1, 16] of 18.1 ± 0.38 g, a Total stool scores [1, 17] of 5.7 ± 0.22 and a Weight [1, 17] of 17.8 ± 0.4 g. The Total stool scores [1, 18] was 5.9 ± 0.11, the Weight [1, 18] was 17.4 ± 0.58 g and the Total stool scores [1, 19] was 5.6 ± 0.23. For the same compound, the Weight [1, 19] was 18.4 ± 0.51 g, the Total stool scores [1, 20] was 4.6 ± 0 and the Weight [1, 20] was 16.3 ± 0.33 g. It also gave a Total stool scores [1, 21] of 4.8 ± 0.26, a Weight [1, 21] of 16.2 ± 0.3 g and a Total stool scores [1, 22] of 4.8 ± 0.31. The Weight [1, 22] was 16.5 ± 0.4 g, the Total stool scores [1, 23] was 4.6 ± 0.39 and the Weight [1, 23] was 17.2 ± 0.48 g. For the same compound, the “Effect on colon atrophy” value ([1]; oral gavage for 8 consecutive days, 6-30 mg/kg) was “certain inhibitory effect on colon atrophy”.
With O=C(O)C[C@H]1CCc2c1[nH]c1ccc(OCc3ccc(C4CCCC4)c(C(F)(F)F)c3)cc21 [Etrasimod, reference compound] the IC50 (S1P1) was 4.71 nM, the Colon weight [1, 3] was 0.169 ± 0.01 g and the “Colon weight compared with model group” value ([1]; 10 mg/kg) was “statistically significant difference compared with that of the model group”. The “Effect … compared with model group” value ([1]; 10 mg/kg) was “had not significant improvement”, the Weight [1, 6] was 21.0 ± 0.26 g and the Weight [1, 7] was 21.6 ± 0.24 g. It also gave a Weight [1, 8] of 21.4 ± 0.25 g, a Weight [1, 9] of 21.7 ± 0.29 g and a Weight [1, 10] of 21.2 ± 0.27 g. The Weight [1, 11] was 20.5 ± 0.22 g, the Total stool scores [1, 13] was 6.0 ± 0 and the Weight [1, 13] was 19.2 ± 0.26 g. For the same compound, the Total stool scores [1, 17] was 5.9 ± 0.11, the Weight [1, 17] was 18.0 ± 0.3 g and the Total stool scores [1, 21] was 5.6 ± 0. It also gave a Weight [1, 21] of 16.6 ± 0.26 g.
